According to patent US20170216288A1, “IMMUNOPOTENTIATOR POTENTIATING TUMOR IMMUNITY OR INFECTION IMMUNITY” (priority 2014, published 2017):

Key:
[1] = system: Tregs in the peripheral blood; assay: Proportion of Tregs in peripheral blood of chronic myelogenous leukemia patients treated with Gleevec (FACS, CD45RA/FoxP3); format: in vivo, human; settings: peripheral blood after treatment
Experimental: Specifically, peripheral blood mononuclear cells in the peripheral blood were harvested, CD4^+ cells were gated using anti-CD4 antibody labeled with BD Horizon V500, and the cells were stained with FITC-labeled anti-CD45RA antibody and PE-labeled anti-FoxP3 antibody. Subsequently, CD45RA and FoxP3 expression levels were measured by FACS analysis. For comparison, the proportion of Tregs in the peripheral blood of a healthy donor was similarly measured.
In FIG. 1, fraction I (CD45RA^+FoxP3^low) represents naive Tregs, fraction II (CD45RA^−FoxP3^high) represents effector Tregs, and fraction III (CD45RA^−FoxP3^low) represents non-suppressive Tregs.

[2] = system: CD45RA-FoxP3high cells (fraction II: effector Tregs); assay: Ki-67 expression in effector Tregs cultured in the presence of imatinib (FACS); format: cell-based, human; settings: imatinib 10 uM, cultured 4 days
[3] = system: Melan A-specific CD8+ T cells; assay: Melan-A-specific CD8+ T cell induction, healthy donor peripheral blood (tetramer); format: cell-based, human; settings: imatinib 5 uM, 1 day, then Melan-A 10 uM, 10 days; healthy donors
effector Tregs [4] = assay: Effector Tregs after imatinib addition and antigen stimulation, healthy donor peripheral blood; format: cell-based, human; settings: imatinib 5 uM, 1 day, then antigen 10 uM, 10 days; healthy donors HD1-HD3
[5] = system: CD45RA-FoxP3high cells (fraction II: effector Tregs); assay: Apoptosis of fractionated T cells cultured with imatinib (Annexin V and 7-AAD); format: cell-based, human; settings: effector Tregs of a healthy donor, cultured 5 days at 37 C
[6] = system: Melan-A-specific CD8+ T cells; assay: Specific CD8+ T cell induction, malignant melanoma patient peripheral blood (tetramer); format: cell-based, human; settings: imatinib 5 uM, 1 day, then Melan-A 10 uM, 10 days; melanoma patients Pt1-Pt3
Experimental: (§1) […]. Initially, Gleevec (Novartis Pharma K.K.; […]. Subsequently, cancer antigen (Melan-A) was added at a concentration of 10 μM to stimulate the cells, and the cells were cultured at 37° C. for 10 days. After the culture, the number of effector Tregs was measured as in Test Example 1 above. In addition, after the culture, analysis with the tetramer was performed as in Test Example 6 above to examine specific CD8^+ T cell induction.

Caspase 3/7 = Caspase 3/7 activation in T cell fractions cultured with imatinib under anti-CD3/anti-CD28 stimulation; format: cell-based, human; settings: imatinib 10 uM, 4 days, anti-CD3/anti-CD28 beads; effector Treg-specific
Experimental: […]; Novartis Pharma K.K.; […]. After the culture, the activation level of Caspase 3/7 in T cells of each fraction was measured using CellEvent Caspase 3/7 green and SYTOX AADvanced. […].
In FIG. 18, the vertical axis represents the proportion (%) of T cells having activated Caspase 3/7. […]

effector Tregs [7] = assay: Effector Tregs after imatinib addition and Melan-A stimulation, malignant melanoma patient peripheral blood; format: cell-based, human; settings: imatinib 5 uM, 1 day, then Melan-A 10 uM, 10 days; melanoma patients Pt1-Pt3
Experimental: as §1

[8] = system: influenza virus-specific CD8+ T cells; assay: Influenza virus-specific CD8+ T cell induction, healthy donor peripheral blood (tetramer); format: cell-based, human; settings: imatinib 5 uM, then influenza virus antigen peptide 10 uM
Experimental: Specifically, analysis on specific CD8^+ T cell induction was performed as in Test Example 6 above, except that instead of cytomegalovirus antigen, an influenza virus antigen peptide was added at a concentration of 10 μM to stimulate the cells, and that influenza-specific tetramer was used.

Ki-67+ Treg cells = assay: Inhibitory action upon Treg cells in vivo, FACS of spleen cells of BALB/c mice; settings: 2 mg or 8 mg imatinib once a day for 1 week, orally or intraperitoneally
Experimental: The expression of Foxp3 and CD25 in CD4^+ T cells and the expression of Ki-67 and CD44 in CD4^+Foxp3^+ T cells were analyzed by FACS.

[9] = system: cytomegalovirus-specific CD8+ T cells; assay: Cytomegalovirus-specific CD8+ T cell induction, healthy donor peripheral blood (tetramer); format: cell-based, human; settings: imatinib 5 uM, then cytomegalovirus antigen 10 uM, 10 days; healthy donor HD1
[10] = system: effector Tregs in the peripheral blood; assay: Proportion of effector Tregs in peripheral blood of patients switched from Gleevec to nilotinib; format: in vivo, human; settings: three patients (Cases 1, 2 and 3), CMR state after switching to nilotinib
BCR-ABL = settings: cited from earlier work
[11] = system: leukemic cells bearing Bcr-Abl gene; assay: Molecular response of chronic myelogenous leukemia patients switched to nilotinib; settings: three patients in which CMR was not achieved by Gleevec

Row | SMILES | naive Tregs (fraction I) in CD4+ cells ([1]; CMR patients (49)) | proportion of effector Tregs (fraction II) in CD4+ cells ([1]; CMR patients (49)) | naive Tregs (fraction I) in CD4+ cells ([1]; Non-CMR patients (38)) | proportion of effector Tregs (fraction II) in CD4+ cells ([1]; Non-CMR patients (38)) | expression level of Ki-67 in effector Tregs [2] | Melan-A-specific CD8+ T cell induction [3] | number of effector Tregs (effector Tregs [4]) | proportion of apoptotic cells [5] | specific CD8+ T cell induction (immune responses against malignant melanoma) [6] | proportion (%) of T cells having activated Caspase 3/7 (Caspase 3/7) | number of effector Tregs (effector Tregs [7]) | influenza virus-specific CD8+ T cell induction [8] | expression of Ki-67 and CD44 in CD4+Foxp3+ T cells of spleen (Ki-67+ Treg cells) | cytomegalovirus-specific CD8+ T cell induction [9] | proportion of effector Tregs in the peripheral blood [10] | affinity for BCR-ABL relative to imatinib (BCR-ABL) | complete molecular response (CMR) [11]
1 | Cc1ccc(NC(=O)c2ccc(CN3CCN(C)CC3)cc2)cc1Nc1nccc(-c2cccnc2)n1 [imatinib] | reduction in naive Tregs | significant reduction in the proportion of effector Tregs | no reduction in naive Tregs | no reduction in the proportion of effector Tregs | selectively reduced | potentiation of Melan-A-specific CD8^+ T cell induction | induces a reduction in effector Tregs | increases the proportion of apoptotic cells | activation of immune responses against malignant melanoma | activates Caspase 3/7 | induces a reduction in effector Tregs | potentiates the induction of influenza virus-specific CD8^+ T cells | selectively inhibits Ki-67^+ Treg cells | potentiated the induction of cytomegalovirus-specific CD8^+ T cells |  |  | 
2 | Cc1cn(-c2cc(NC(=O)c3ccc(C)c(Nc4nccc(-c5cccnc5)n4)c3)cc(C(F)(F)F)c2)cn1 [nilotinib] |  |  |  |  |  |  |  |  |  |  |  |  |  |  | a reduction in effector Tregs was not observed | higher affinity for BCR-ABL than that of imatinib | CMR was achieved
